Results: the kinase profiling compilation of Christmann-Franck et al. (2016)

Columns and labels:
Test in all cases: KINOMEscan competition binding
Conditions in all cases: compound 10.0 µM
MAP3K4 (human) = MAP3K4 (human) (UniProt Q9Y6R4)
MAPK3 (human) = MAPK3 (human) (UniProt P27361)
YES1 (human) = YES1 (human) (UniProt P07947)
PIK3C2G (human) = PIK3C2G (human) (UniProt O75747)
TNK2 (human) = TNK2 (human) (UniProt Q07912)
PRKAA1 (human) = PRKAA1 (human) (UniProt Q13131)
ACVR2A (human) = ACVR2A (human) (UniProt P27037)
PRKAA2 (human) = PRKAA2 (human) (UniProt P54646)
HIPK4 (human) = HIPK4 (human) (UniProt Q8NE63)
SRPK2 (human) = SRPK2 (human) (UniProt P78362)
[1] = tested on: EGFR (human), P00533 [A750P; 747-749 del]
CAMK2D (human) = CAMK2D (human) (UniProt Q13557)
FLT1 (human) = FLT1 (human) (UniProt P17948)
MAP2K4 (human) = MAP2K4 (human) (UniProt P45985)
RIPK2 (human) = RIPK2 (human) (UniProt O43353)
AURKC (human) = AURKC (human) (UniProt Q9UQB9)
PRKD1 (human) = PRKD1 (human) (UniProt Q15139)
MAP2K7 (human) = MAP2K7 (human) (UniProt O14733)
RIOK1 (human) = RIOK1 (human) (UniProt Q9BRS2)
DDR1 (human) = DDR1 (human) (UniProt Q08345)
DYRK1B (human) = DYRK1B (human) (UniProt Q9Y463)
PAK7 (human) = PAK7 (human) (UniProt Q9P286)
PRKCI (human) = PRKCI (human) (UniProt P41743)
LIMK2 (human) = LIMK2 (human) (UniProt P53671)
EPHB6 (human) = EPHB6 (human) (UniProt O15197)
IRAK1 (human) = IRAK1 (human) (UniProt P51617)
NEK9 (human) = NEK9 (human) (UniProt Q8TD19)
CDKL1 (human) = CDKL1 (human) (UniProt Q00532)
MAP2K2 (human) = MAP2K2 (human) (UniProt P36507)
DSTYK (human) = DSTYK (human) (UniProt Q6XUX3)
PIK3CG (human) = PIK3CG (human) (UniProt P48736)
MKNK2 (human) = MKNK2 (human) (UniProt Q9HBH9)
MAPK8 (human) = MAPK8 (human) (UniProt P45983)
PKN1 (human) = PKN1 (human) (UniProt Q16512)
TYRO3 (human) = TYRO3 (human) (UniProt Q06418)
LRRK2 (human) = LRRK2 (human) (UniProt Q5S007)
ANKK1 (human) = ANKK1 (human) (UniProt Q8NFD2)
FLT4 (human) = FLT4 (human) (UniProt P35916)
CPK1 (P.falciparum) = tested on: CPK1 (P.falciparum)
KDR (human) = KDR (human) (UniProt P35968)

Sequence of MAPK8 (human) (P45983 whole entry, looked up): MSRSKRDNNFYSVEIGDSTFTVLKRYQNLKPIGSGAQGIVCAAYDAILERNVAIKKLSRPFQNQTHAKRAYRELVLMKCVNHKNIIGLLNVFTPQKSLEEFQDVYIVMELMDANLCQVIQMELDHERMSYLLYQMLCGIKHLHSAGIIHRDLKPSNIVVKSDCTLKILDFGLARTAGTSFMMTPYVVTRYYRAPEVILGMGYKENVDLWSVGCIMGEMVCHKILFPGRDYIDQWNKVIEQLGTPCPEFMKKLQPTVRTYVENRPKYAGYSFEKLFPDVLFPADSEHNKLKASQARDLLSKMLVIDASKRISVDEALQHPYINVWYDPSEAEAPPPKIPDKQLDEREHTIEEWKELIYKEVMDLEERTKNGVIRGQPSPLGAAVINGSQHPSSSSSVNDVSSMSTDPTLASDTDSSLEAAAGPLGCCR
Sequence of AURKC (human) (Q9UQB9 whole entry, looked up): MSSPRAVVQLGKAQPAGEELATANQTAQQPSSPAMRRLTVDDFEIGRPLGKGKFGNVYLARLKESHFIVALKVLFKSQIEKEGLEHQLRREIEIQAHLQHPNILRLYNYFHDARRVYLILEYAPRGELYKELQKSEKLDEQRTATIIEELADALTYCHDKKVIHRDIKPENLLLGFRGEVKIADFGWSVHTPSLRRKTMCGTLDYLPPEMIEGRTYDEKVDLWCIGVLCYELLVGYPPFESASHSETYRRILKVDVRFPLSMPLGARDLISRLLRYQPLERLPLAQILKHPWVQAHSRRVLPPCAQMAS
Sequence of FLT1 (human) (P17948 whole entry, looked up): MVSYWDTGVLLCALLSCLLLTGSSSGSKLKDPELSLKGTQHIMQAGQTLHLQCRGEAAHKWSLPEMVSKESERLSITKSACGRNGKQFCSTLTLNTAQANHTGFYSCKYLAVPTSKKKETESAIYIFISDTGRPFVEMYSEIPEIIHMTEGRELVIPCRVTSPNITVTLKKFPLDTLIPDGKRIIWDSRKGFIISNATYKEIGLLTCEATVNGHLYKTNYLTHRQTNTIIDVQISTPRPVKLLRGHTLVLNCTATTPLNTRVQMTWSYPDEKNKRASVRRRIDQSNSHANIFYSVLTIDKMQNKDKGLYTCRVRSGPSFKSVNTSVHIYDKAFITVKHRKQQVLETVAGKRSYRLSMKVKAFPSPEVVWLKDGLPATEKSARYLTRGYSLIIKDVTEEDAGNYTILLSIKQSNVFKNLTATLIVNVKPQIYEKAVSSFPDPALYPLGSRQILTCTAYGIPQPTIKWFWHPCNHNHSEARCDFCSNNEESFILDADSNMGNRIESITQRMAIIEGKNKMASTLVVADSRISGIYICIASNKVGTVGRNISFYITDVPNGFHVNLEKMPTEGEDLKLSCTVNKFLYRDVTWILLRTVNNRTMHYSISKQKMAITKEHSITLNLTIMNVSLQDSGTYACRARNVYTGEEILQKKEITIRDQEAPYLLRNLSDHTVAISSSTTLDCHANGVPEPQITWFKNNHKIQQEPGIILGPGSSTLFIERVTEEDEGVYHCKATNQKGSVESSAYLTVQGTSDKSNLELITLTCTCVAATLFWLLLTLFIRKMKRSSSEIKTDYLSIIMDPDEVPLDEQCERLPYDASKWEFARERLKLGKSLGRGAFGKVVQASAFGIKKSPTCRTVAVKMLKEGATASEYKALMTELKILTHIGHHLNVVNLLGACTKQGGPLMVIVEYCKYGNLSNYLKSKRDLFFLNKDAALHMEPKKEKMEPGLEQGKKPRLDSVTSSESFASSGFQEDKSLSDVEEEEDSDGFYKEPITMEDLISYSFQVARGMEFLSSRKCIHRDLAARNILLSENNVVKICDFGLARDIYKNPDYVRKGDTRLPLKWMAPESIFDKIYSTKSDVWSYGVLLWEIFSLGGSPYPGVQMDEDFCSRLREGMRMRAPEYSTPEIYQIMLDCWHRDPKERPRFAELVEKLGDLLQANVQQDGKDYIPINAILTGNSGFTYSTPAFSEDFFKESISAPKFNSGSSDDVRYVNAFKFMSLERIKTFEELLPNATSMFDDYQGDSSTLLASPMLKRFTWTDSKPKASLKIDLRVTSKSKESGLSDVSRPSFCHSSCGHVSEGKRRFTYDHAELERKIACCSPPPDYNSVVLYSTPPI
Sequence of LIMK2 (human) (P53671 whole entry, looked up): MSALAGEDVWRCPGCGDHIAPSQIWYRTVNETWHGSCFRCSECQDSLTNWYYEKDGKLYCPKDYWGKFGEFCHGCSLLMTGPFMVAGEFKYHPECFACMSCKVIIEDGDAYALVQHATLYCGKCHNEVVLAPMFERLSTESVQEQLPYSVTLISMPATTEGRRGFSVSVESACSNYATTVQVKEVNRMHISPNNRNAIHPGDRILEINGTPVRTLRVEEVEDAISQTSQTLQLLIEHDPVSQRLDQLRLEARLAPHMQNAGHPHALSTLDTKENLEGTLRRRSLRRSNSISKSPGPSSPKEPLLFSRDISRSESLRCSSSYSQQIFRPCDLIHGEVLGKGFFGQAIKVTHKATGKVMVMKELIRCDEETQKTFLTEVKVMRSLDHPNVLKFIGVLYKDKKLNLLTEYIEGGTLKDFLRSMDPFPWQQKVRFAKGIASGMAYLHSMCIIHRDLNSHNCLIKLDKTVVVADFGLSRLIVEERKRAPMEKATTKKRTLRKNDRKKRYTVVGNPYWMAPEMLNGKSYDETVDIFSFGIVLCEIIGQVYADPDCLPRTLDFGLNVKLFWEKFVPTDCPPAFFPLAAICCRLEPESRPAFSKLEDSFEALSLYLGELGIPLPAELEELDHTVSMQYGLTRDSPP
Sequence of RIOK1 (human) (Q9BRS2 whole entry, looked up): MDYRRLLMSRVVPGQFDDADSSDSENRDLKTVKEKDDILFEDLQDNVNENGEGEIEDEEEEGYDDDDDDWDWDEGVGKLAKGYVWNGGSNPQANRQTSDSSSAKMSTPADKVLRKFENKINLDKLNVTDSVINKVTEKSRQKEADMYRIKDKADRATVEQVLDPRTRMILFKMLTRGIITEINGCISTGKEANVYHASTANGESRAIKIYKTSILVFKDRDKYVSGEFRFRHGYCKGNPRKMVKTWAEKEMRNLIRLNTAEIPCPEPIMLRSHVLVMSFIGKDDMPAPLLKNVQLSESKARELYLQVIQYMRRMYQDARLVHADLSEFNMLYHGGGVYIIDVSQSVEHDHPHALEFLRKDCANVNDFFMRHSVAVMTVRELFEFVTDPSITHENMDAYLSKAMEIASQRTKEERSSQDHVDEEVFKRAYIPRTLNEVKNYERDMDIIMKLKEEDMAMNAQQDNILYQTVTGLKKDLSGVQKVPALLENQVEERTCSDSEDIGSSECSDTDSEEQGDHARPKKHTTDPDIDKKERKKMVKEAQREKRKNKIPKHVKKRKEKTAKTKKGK
Sequence of MKNK2 (human) (Q9HBH9 whole entry, looked up): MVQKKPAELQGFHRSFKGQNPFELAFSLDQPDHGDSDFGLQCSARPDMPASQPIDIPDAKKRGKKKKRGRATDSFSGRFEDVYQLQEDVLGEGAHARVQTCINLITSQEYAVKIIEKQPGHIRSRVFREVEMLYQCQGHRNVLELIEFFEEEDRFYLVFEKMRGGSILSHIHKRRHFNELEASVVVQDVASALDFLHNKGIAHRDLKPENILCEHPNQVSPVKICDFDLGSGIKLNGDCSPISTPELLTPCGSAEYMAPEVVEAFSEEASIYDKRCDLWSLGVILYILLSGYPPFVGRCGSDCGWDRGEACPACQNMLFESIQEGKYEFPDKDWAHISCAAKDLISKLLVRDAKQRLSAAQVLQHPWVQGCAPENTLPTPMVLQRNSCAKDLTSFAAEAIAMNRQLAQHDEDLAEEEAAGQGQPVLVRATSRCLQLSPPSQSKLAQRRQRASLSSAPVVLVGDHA
Sequence of YES1 (human) (P07947 whole entry, looked up): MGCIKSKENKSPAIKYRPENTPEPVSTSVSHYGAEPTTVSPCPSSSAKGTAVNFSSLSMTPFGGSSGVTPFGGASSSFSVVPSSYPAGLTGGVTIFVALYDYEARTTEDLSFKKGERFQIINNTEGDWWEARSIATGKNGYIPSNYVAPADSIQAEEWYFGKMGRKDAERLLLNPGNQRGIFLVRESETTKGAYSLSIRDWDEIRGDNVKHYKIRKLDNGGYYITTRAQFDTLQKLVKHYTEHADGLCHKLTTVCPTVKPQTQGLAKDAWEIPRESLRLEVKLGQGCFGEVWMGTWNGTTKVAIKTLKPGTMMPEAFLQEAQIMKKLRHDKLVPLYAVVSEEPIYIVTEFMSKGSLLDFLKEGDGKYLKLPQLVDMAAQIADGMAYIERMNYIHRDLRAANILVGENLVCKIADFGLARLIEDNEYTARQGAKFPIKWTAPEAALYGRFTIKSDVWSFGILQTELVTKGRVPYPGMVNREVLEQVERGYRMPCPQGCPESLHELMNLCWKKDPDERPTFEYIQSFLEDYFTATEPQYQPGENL
Sequence of ACVR2A (human) (P27037 whole entry, looked up): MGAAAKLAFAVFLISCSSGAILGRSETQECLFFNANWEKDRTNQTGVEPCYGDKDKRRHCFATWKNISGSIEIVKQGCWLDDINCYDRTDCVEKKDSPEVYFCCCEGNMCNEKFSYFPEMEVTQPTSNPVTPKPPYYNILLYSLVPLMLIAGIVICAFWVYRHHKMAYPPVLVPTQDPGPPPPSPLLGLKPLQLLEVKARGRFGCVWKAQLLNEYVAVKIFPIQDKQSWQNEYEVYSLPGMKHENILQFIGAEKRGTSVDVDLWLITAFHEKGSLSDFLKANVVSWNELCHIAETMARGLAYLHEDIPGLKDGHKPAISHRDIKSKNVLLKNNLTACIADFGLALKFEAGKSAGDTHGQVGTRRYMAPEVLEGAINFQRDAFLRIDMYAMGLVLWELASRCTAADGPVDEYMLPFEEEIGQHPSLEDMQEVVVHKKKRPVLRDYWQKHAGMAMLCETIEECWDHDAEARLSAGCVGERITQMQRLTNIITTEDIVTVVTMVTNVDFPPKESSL

Row | SMILES | kinase still bound, per cent of control (MAPK3 (human)) | kinase still bound, per cent of control (YES1 (human)) | kinase still bound, per cent of control (PIK3C2G (human)) | kinase still bound, per cent of control (TNK2 (human)) | kinase still bound, per cent of control (PRKAA1 (human)) | kinase still bound, per cent of control (PRKAA2 (human)) | kinase still bound, per cent of control (HIPK4 (human)) | kinase still bound, per cent of control (SRPK2 (human)) | kinase still bound, per cent of control (CAMK2D (human)) | kinase still bound, per cent of control (FLT1 (human)) | kinase still bound, per cent of control (AURKC (human)) | kinase still bound, per cent of control (PRKD1 (human)) | kinase still bound, per cent of control (MAP2K7 (human)) | kinase still bound, per cent of control (RIOK1 (human)) | kinase still bound, per cent of control (DDR1 (human)) | kinase still bound, per cent of control (DYRK1B (human)) | kinase still bound, per cent of control (PAK7 (human)) | kinase still bound, per cent of control (PRKCI (human)) | kinase still bound, per cent of control (LIMK2 (human)) | kinase still bound, per cent of control (EPHB6 (human)) | also measured
1 | CCCS(=O)(=O)Nc1ccc(F)c(C(=O)c2c[nH]c3ncc(Cl)cc23)c1F | 100% | 18% | 55% | 8.2% | 64% | 46% | 34% | 100% | 99% | 28% | 100% | 31% | 83% | 100% | 1.6% | 87% | 44% | 100% | 24% | 3.6% | kinase still bound, per cent of control (MAP3K4 (human)): 92%; kinase still bound, per cent of control (ACVR2A (human)): 100%; kinase still bound, per cent of control [1]: 77%; kinase still bound, per cent of control (MAP2K4 (human)): 6.6%; kinase still bound, per cent of control (RIPK2 (human)): 8.3%; kinase still bound, per cent of control (IRAK1 (human)): 60%; kinase still bound, per cent of control (NEK9 (human)): 66%; kinase still bound, per cent of control (CDKL1 (human)): 93%; kinase still bound, per cent of control (MAP2K2 (human)): 1%; kinase still bound, per cent of control (DSTYK (human)): 54%; kinase still bound, per cent of control (PIK3CG (human)): 83%; kinase still bound, per cent of control (MKNK2 (human)): 84%; kinase still bound, per cent of control (MAPK8 (human)): 96%; kinase still bound, per cent of control (PKN1 (human)): 85%; kinase still bound, per cent of control (TYRO3 (human)): 100%; kinase still bound, per cent of control (LRRK2 (human)): 37%; kinase still bound, per cent of control (ANKK1 (human)): 98%; kinase still bound, per cent of control (FLT4 (human)): 61%; kinase still bound, per cent of control (CPK1 (P.falciparum)): 0%
2 | CCN(CCO)CCCOc1ccc2c(Nc3cc(CC(=O)Nc4cccc(F)c4)[nH]n3)ncnc2c1 | 100% | 42% | 21% | 100% | 64% | 77% | 4.5% | 92% | 93% | 1% | 19% | 72% | 91% | 100% | 12% | 86% | 100% | 96% | 100% | 0.8% | kinase still bound, per cent of control (MAP3K4 (human)): 90%; kinase still bound, per cent of control (ACVR2A (human)): 100%; kinase still bound, per cent of control (MAP2K4 (human)): 100%; kinase still bound, per cent of control (RIPK2 (human)): 17%; kinase still bound, per cent of control (KDR (human)): 2.7%; kinase still bound, per cent of control (IRAK1 (human)): 63%; kinase still bound, per cent of control (NEK9 (human)): 100%; kinase still bound, per cent of control (CDKL1 (human)): 84%; kinase still bound, per cent of control (MAP2K2 (human)): 21%; kinase still bound, per cent of control (DSTYK (human)): 14%; kinase still bound, per cent of control (PIK3CG (human)): 100%; kinase still bound, per cent of control (MKNK2 (human)): 6.4%; kinase still bound, per cent of control (MAPK8 (human)): 59%; kinase still bound, per cent of control (PKN1 (human)): 90%; kinase still bound, per cent of control (TYRO3 (human)): 100%; kinase still bound, per cent of control (LRRK2 (human)): 100%; kinase still bound, per cent of control (ANKK1 (human)): 11%; kinase still bound, per cent of control (FLT4 (human)): 38%; kinase still bound, per cent of control (CPK1 (P.falciparum)): 63%
3 | CCc1nc(-c2cccc(C)c2)c(-c2ccnc(NC(=O)c3ccccc3)c2)s1 | 98% | 5.6% | 40% | 78% | 81% | 100% | 97% | 73% | 100% | 31% | 90% | 65% | 100% | 100% | 2.8% | 90% | 90% | 100% | 94% | 16% | kinase still bound, per cent of control (MAP3K4 (human)): 85%; kinase still bound, per cent of control (ACVR2A (human)): 70%; kinase still bound, per cent of control (MAP2K4 (human)): 95%; kinase still bound, per cent of control (RIPK2 (human)): 1.2%; kinase still bound, per cent of control (KDR (human)): 38%; kinase still bound, per cent of control (IRAK1 (human)): 99%; kinase still bound, per cent of control (NEK9 (human)): 100%; kinase still bound, per cent of control (CDKL1 (human)): 100%; kinase still bound, per cent of control (MAP2K2 (human)): 90%; kinase still bound, per cent of control (DSTYK (human)): 100%; kinase still bound, per cent of control (PIK3CG (human)): 100%; kinase still bound, per cent of control (MKNK2 (human)): 94%; kinase still bound, per cent of control (MAPK8 (human)): 0.3%; kinase still bound, per cent of control (PKN1 (human)): 98%; kinase still bound, per cent of control (TYRO3 (human)): 83%; kinase still bound, per cent of control (LRRK2 (human)): 100%; kinase still bound, per cent of control (ANKK1 (human)): 83%; kinase still bound, per cent of control (FLT4 (human)): 27%; kinase still bound, per cent of control (CPK1 (P.falciparum)): 22%
4 | CC(=O)c1c(C)c2cnc(Nc3ccc(N4CCNCC4)cn3)nc2n(C2CCCC2)c1=O | 64% | 83% | 20% | 92% | 22% | 40% | 6% | 68% | 6.8% | 100% | 96% | 0.85% | 87% | 38% | 60% | 3.2% | 35% | 57% | 90% | 65% | kinase still bound, per cent of control (IRAK1 (human)): 0.85%; kinase still bound, per cent of control (NEK9 (human)): 76%; kinase still bound, per cent of control (CDKL1 (human)): 35%; kinase still bound, per cent of control (MAP2K2 (human)): 9.1%; kinase still bound, per cent of control (DSTYK (human)): 5%; kinase still bound, per cent of control (PIK3CG (human)): 6.8%; kinase still bound, per cent of control (MKNK2 (human)): 20%; kinase still bound, per cent of control (MAPK8 (human)): 1.6%; kinase still bound, per cent of control (PKN1 (human)): 66%; kinase still bound, per cent of control (TYRO3 (human)): 93%; kinase still bound, per cent of control (LRRK2 (human)): 50%; kinase still bound, per cent of control (ANKK1 (human)): 79%; kinase still bound, per cent of control (CPK1 (P.falciparum)): 46%
